Reference: US20250248979A1, “NOVEL GPX4 INHIBITORS AND USES THEREOF” (THE TRUSTEES OF COLUMBIA UNIVERSITY IN THE CITY OF NEW YORK, priority 2022, published 2025)
“Also recorded” adds a separate entry of the source. Where two headings read alike, the source gives them in different places.

Key:
[1] = test system: HT-1080 cells; assay: Cellular dose response assay, HT-1080 with and without Fer-1; type: cell-based, human; conditions: for ferroptosis induction / potency in HT-1080 cells, result in words: RSL3 as control; for Selectivity: ferroptosis selectivity
Excerpt: HT-1080 (human [Homo sapiens] […] fibrosarcoma), A-673 (human [Homo sapiens] […] Ewing's sarcoma), and SK-HEP-1 (human [Homo sapiens] […] hepatic adenocarcinoma), cells were obtained from ATCC. Huh7 (human [Homo sapiens] […] hepatocellular carcinoma), HLF (human [Homo sapiens] […] hepatocellular carcinoma), HepG2 (human [Homo sapiens] […] hepatocellular carcinoma), cells were obtained from the Cancer Cell Bank at Columbia University Irving Medical Center. HT-1080, A-673, Huh-7, and HLF cells were grown in Dulbecco's Modified Eagle Medium (DMEM) supplemented with 10% heat inactivated fetal bovine serum (HI-FBS), 1% non-essential amino acids, and 1% penicillin streptomycin. HepG2 and SK-HEP-1 cells were grown in Eagle's Minimum Essential Medium (EMEM) supplemented with 10% HI-FBS, and 1% penicillin-streptomycin. All cells were cultured at 37° C. and 5% CO2.
HT-1080, HepG2, Huh7, HLF, and SK-HEP-1 cells were seeded into opaque white 384-well plates at 1500 cells per well then incubated at 37° C. with 5% CO2 overnight. The next day, compounds of interest were dissolved in DMSO and 12-point 2-fold dilution series were prepared with and without Fer-1. Cells were treated in triplicate (final DMSO concentration of 0.4% in all wells, including DMSO-only control wells) and incubated for a further 48 hours at 37° C. and 5% CO2. Cell viability was evaluated using CellTiter-Glo (Promega G7573) and luminescence was recorded on a Victor 5 plate reader. Data were analyzed in GraphPad Prism 9 and error bars represent standard deviation values for three technical replicates in a representative experiment.

[2] = biological target: T1, GPX4 (Homo sapiens, UniProt P36969); assay: GPX4 activity assay in cell lysates (NADPH-coupled); type: biochemical; design: endogenous in cells; host or cells: A-673 cell lysate
T1 sequence (P36969 1-170 isoform P36969-2): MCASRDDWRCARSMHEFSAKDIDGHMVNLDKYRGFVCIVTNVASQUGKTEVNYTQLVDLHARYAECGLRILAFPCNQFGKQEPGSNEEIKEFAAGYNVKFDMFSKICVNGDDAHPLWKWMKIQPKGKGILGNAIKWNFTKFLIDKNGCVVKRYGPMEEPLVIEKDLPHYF
Procedure, shortened: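 Native GPX4 in lysates of A-673 cells grown with 20 nM sodium selenite; lysate preincubated with compound 45 min at 37 °C in pH 8.0 buffer with 3 mM GSH, 0.5 mM NADPH and glutathione reductase. Reaction started with phosphatidylcholine hydroperoxide; NADPH consumption followed at 340 nm over 25 min; triplicates.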

[3] = with Fer-1, Table 10, read-out: IC50 (μM) HT1080 + Fer-1
[4] = without Fer-1, Table 10, read-out: IC50 (μM) HT1080
[5] = HT1080 + Fer-1, read-out: IC50 (uM) HT1080 + Fer-1
[6] = HT1080, without Fer-1, read-out: IC50 (uM) HT1080

COc1ccc(-c2ccc3c(C(=O)NC(C)(C)COC(=O)CCl)nn(Cc4ccc(Cl)cc4)c3c2)cc1Cl [QW-823]
ferroptosis induction / potency in HT-1080 cells, result in words [1]: good potency in cell and selectivity to GPX4; also recorded: outstanding cytotoxicity with sub-molar scale | Selectivity ([1]; IC50 with Fer-1 / IC50): 34.5 | IC50 [1, 3]: 11.4 µM | IC50 [1, 4]: 0.33 µM | GPX4 inhibitory activity, result in words [2]: greater GPX4 inhibitory activity than QW-446 | GPX4% inhibition at 2.5 μM ([2]; 4th generation): 95.0 ± 13.1%

COc1ccc(-c2ccc3c(C(=O)NC(C)(C)C(C)(C)OC(=O)CCl)nn(Cc4ccc(Cl)cc4)c3c2)cc1Cl [QW-809]
Selectivity ([1]; IC50 with Fer-1 / IC50): 1.5 | IC50 [1, 3]: 6.5 µM | IC50 [1, 4]: 4.2 µM | GPX4% inhibition at 2.5 μM ([2]; 4th generation): 34.6 ± 29.6%

CC(C)(COC(=O)CCl)NC(=O)c1nn(Cc2ccc(C(F)(F)F)cc2)c2cc(-c3ccc(N4CCOCC4)c(Cl)c3)ccc12 [QW-874]
Selectivity ([1]; IC50 with Fer-1 / IC50): 1.7 | IC50 [1, 3]: 49 µM | IC50 [1, 4]: 28.3 µM | GPX4% inhibition at 2.5 μM ([2]; 4th generation): 57.5 ± 24.5%

CC(C)Oc1ccc(-c2ccc3c(C(=O)NC(C)(C)COC(=O)CCl)nn(Cc4cc(Cl)cc(Cl)c4)c3c2)cc1Cl [QW-857]
Selectivity ([1]; IC50 with Fer-1 / IC50): >790 | IC50 ([1]; read-out: IC50 against HT1080 cell lines): 0.0506 µM | IC50 [1, 3]: > 40 µM | GPX4 inhibitory activity, result in words [2]: greater GPX4 inhibitory activity than QW-446 at 2.5 μM concentration | GPX4% inhibition at 2.5 μM ([2]; 4th generation): 66.7 ± 26.2%

Cn1nc(-n2cc(C(C)(C)COC(=O)CCl)nn2)c2ccc(-c3ccc4c(c3)OCO4)cc21 [QW-696]
IC50 [1, 5]: 8.8 µM | IC50 [1, 6]: 2.9 µM | Selectivity ([1]; HT1080 + Fer-1 vs HT1080): 3.0 | GPX4% inhibition at 2.5 μM [2]: 22.3 ± 37.1%

CCOCCOc1ccc(-c2ccc3c(C(=O)NC(C)(C)COC(=O)CCl)nn(C)c3c2)cc1 [QW-605]
IC50 [1, 5]: 17.5 µM | IC50 [1, 6]: 1.9 µM | Selectivity ([1]; HT1080 + Fer-1 vs HT1080): 9.2 | GPX4% inhibition at 2.5 μM [2]: 60.9 ± 15.7%

CC(C)Oc1ccc(-c2ccc3c(C(=O)NC(C)(C)COC(=O)CCl)nn(Cc4ccc(Cl)cc4)c3c2)cc1Cl [QW-841]
ferroptosis induction / potency in HT-1080 cells, result in words [1]: outstanding cytotoxicity with sub-molar scale | Selectivity ([1]; IC50 with Fer-1 / IC50): 38.5 | IC50 [1, 3]: 28.5 µM | IC50 [1, 4]: 0.74 µM | GPX4% inhibition at 2.5 μM ([2]; 4th generation): 91.3 ± 2.0%

COc1c(Cl)cc(-c2ccc3c(C(=O)NC(C)(C)COC(=O)CCl)nn(C)c3c2)cc1C(F)(F)F [QW-815]
IC50 [1, 5]: 16.7 µM | IC50 [1, 6]: 0.58 µM | ferroptosis induction / potency in HT-1080 cells, result in words [1]: sub-molar range cellular activities and decreased ferroptosis selectivity | Selectivity ([1]; HT1080 + Fer-1 vs HT1080): 28.8 | GPX4% inhibition at 2.5 μM [2]: 79.3 ± 5.5%

COc1ccc(-c2ccc3c(C(=O)NC(C)(C)COC(=O)C#C[Si](C)(C)C)nn(Cc4ccc(Cl)cc4)c3c2)cc1Cl [QW-832]
Selectivity ([1]; IC50 with Fer-1 / IC50): 37.4 | IC50 [1, 3]: 63.6 µM | IC50 [1, 4]: 1.7 µM | GPX4% inhibition at 2.5 μM ([2]; 4th generation): 58.9 ± 9.0%

Cn1nc(C(=O)NC(C)(C)C(C)(C)OC(=O)CCl)c2ccc(-c3ccc(N4CCOCC4)c(Cl)c3)cc21 [QW-731]
IC50 [1, 5]: 2.8 µM | IC50 [1, 6]: 1.2 µM | Selectivity ([1]; HT1080 + Fer-1 vs HT1080): 2.3 | GPX4% inhibition at 2.5 μM [2]: 68.5 ± 9.4%

COc1c(F)cc(-c2ccc3c(-n4cc(C(C)(C)COC(=O)CCl)nn4)nn(C)c3c2)cc1Cl [QW-801]
IC50 [1, 5]: 14.3 µM | IC50 [1, 6]: 8.4 µM | Selectivity ([1]; HT1080 + Fer-1 vs HT1080): 1.7 | GPX4% inhibition at 2.5 μM [2]: 58.1 ± 9.2%

Cn1nc(-c2nnc(C(C)(OC(=O)CCl)C(F)(F)F)o2)c2ccc(-c3ccc4c(c3)OCO4)cc21 (centres unmarked) [QW-695]
IC50 [1, 5]: 14.4 µM | IC50 [1, 6]: 9.4 µM | Selectivity ([1]; HT1080 + Fer-1 vs HT1080): 1.5 | GPX4% inhibition at 2.5 μM [2]: −49.5 ± 28.5%
